# ChEMBL document CHEMBL6134781, “In vitro identification of oridonin hybrids as potential anti-TNBC agents inducing cell cycle arrest and apoptosis by regulation of p21, γH2AX and cleaved PARP” (RSC Med Chem, 2024)
# Calls of active or inactive are those of the source. No cut-off for these calls is given here.
# Assays:
# [1] = system: HCC1806; experiment: Induction of DNA damage in human HCC1806 cells assessed as increase in gamma-H2AX level incubated for 24 hrs by Western blot analysis; format: functional, cell-based; settings: dose 1-3 µM
# [2] = system: MDA-MB-231; experiment: Induction of apoptosis in human MDA-MB-231 cells assessed as early apoptotic cells at 3 uM incubated for 16 hrs by Annexin V-FITC/PI staining based flow cytometry (reference value: 1.94 %); format: functional
# [3] = system: MDA-MB-231; experiment: Induction of cell cycle arrest in human MDA-MB-231 cells assessed as increase in p21 level incubated for 16 hrs by Western blot analysis; format: functional, cell-based; settings: dose 1-3 µM
# [4] = system: MDA-MB-468; experiment: Induction of apoptosis in human MDA-MB-468 cells assessed as viable cells at 3 uM incubated for 24 hrs by Annexin V-FITC/PI staining based flow cytometry (reference value: 88.9 %); format: functional; settings: read-out: Activity
# [5] = system: HCC1806; experiment: Induction of apoptosis in human HCC1806 cells assessed as early apoptotic cells at 3 uM incubated for 24 hrs by Annexin V-FITC/PI staining based flow cytometry (reference value: 3.06 %); format: functional
# [6] = system: MDA-MB-468; experiment: Cytotoxicity against human MDA-MB-468 cells assessed as inhibition of cell viability incubated for 72 hrs by SRB assay; format: functional, cell-based; settings: MDA-MB-468, 72 h
# [7] = system: MDA-MB-231; experiment: Cytotoxicity against human MDA-MB-231 cells assessed as inhibition of cell viability incubated for 72 hrs by SRB assay; format: functional, cell-based; settings: MDA-MB-231, 72 h
# [8] = system: HCC1937; experiment: Induction of apoptosis in human HCC1937 cells assessed as viable cells at 1 uM incubated for 24 hrs by Annexin V-FITC/PI staining based flow cytometry (reference value: 97.2 %); format: functional; settings: read-out: Activity
# [9] = system: MDA-MB-468; experiment: Induction of apoptosis in human MDA-MB-468 cells assessed as early apoptotic cells at 3 uM incubated for 24 hrs by Annexin V-FITC/PI staining based flow cytometry (reference value: 3.17 %); format: functional
# [10] = system: MDA-MB-231; experiment: Induction of apoptosis in human MDA-MB-231 cells assessed as late apoptotic cells at 3 uM incubated for 16 hrs by Annexin V-FITC/PI staining based flow cytometry (reference value: 4.62 %); format: functional
# [11] = system: HCC1806; experiment: Induction of apoptosis in human HCC1806 cells assessed as late apoptotic cells at 3 uM incubated for 24 hrs by Annexin V-FITC/PI staining based flow cytometry (reference value: 1.48 %); format: functional
# [12] = system: MDA-MB-468; experiment: Induction of DNA damage in human MDA-MB-468 cells assessed as increase in gamma-H2AX level incubated for 24 hrs by Western blot analysis; format: functional, cell-based; settings: dose 1-3 µM
# [13] = system: MDA-MB-231; experiment: Induction of DNA damage in human MDA-MB-231 cells assessed as increase in gamma-H2AX level incubated for 16 hrs by Western blot analysis; format: functional, cell-based; settings: dose 1-3 µM
# [14] = system: HCC1937; experiment: Induction of apoptosis in human HCC1937 cells assessed as early apoptotic cells at 1 uM incubated for 24 hrs by Annexin V-FITC/PI staining based flow cytometry (reference value: 0.74 %); format: functional
# [15] = system: HCC1937; experiment: Induction of apoptosis in human HCC1937 cells assessed as increase in cleaved PARP-1 level incubated for 24 hrs by Western blot analysis; format: functional, cell-based; settings: dose 1-3 µM
# [16] = system: MDA-MB-468; experiment: Induction of apoptosis in human MDA-MB-468 cells assessed as late apoptotic cells at 3 uM incubated for 24 hrs by Annexin V-FITC/PI staining based flow cytometry (reference value: 3.84 %); format: functional
# [17] = system: HCC1806; experiment: Induction of cell cycle arrest in human HCC1806 cells assessed as increase in p21 level incubated for 16 hrs by Western blot analysis; format: functional, cell-based; settings: dose 1-3 µM
# [18] = system: MDA-MB-231; experiment: Induction of apoptosis in human MDA-MB-231 cells assessed as viable cells at 3 uM incubated for 16 hrs by Annexin V-FITC/PI staining based flow cytometry (reference value: 89.5 %); format: functional; settings: read-out: Activity
# [19] = system: HCC1937; experiment: Effect on cell cycle distribution in human HCC1937 cells at 1 to 3 uM incubated for 16 hrs by PI staining based flow cytometry; format: functional; settings: dose 1-3 µM
# [20] = system: HCC1806; experiment: Induction of apoptosis in human HCC1806 cells assessed as late apoptotic cells at 1 uM incubated for 24 hrs by Annexin V-FITC/PI staining based flow cytometry (reference value: 1.48 %); format: functional
# [21] = system: HCC1937; experiment: Induction of cell cycle arrest in human HCC1937 cells assessed as increase in p21 level incubated for 16 hrs by Western blot analysis; format: functional, cell-based; settings: dose 1-3 µM
smiles,measurement,setting,value
C=C1C(=O)[C@]23[C@H](OC(=O)C45CC6CC(CC(C6)C4)C5)[C@H]1CC[C@H]2[C@@]12CO[C@]3(O)[C@@H](O)[C@@H]1C(C)(C)CC[C@@H]2O,Activity,[1],Dose-dependent-effect
same,Activity,[2],3.51%
same,Activity,[3],Dose-dependent-effect
same,viability at 3 µM,[4],66.3%
same,Activity,[5],11%
same,IC50,[6],410 nM
same,IC50,[7],400 nM
same,viability at 1 µM,[8],96.1%
same,Activity,[9],30%
same,Activity,[10],20.4%
same,Activity,[11],14.2%
same,Activity,[12],Dose-dependent-effect
same,Activity,[13],Dose-dependent-effect
same,Activity,[14],1.23%
same,Activity,[15],Dose-dependent-effect
same,Activity,[16],3.22%
same,Activity,[17],Dose-dependent-effect
same,viability at 3 µM,[18],71.6%
same,Activity,[19],Active
same,Activity,[20],2.8%
same,Activity,[21],Dose-dependent-effect
